Results from patent US20250281464A1, “TREATMENT OF PATHOGENIC NEISSERIA SP. INFECTION WITH TRIAZOLE ANTIFUNGAL AGENTS” (Virginia Tech Intellectual Properties, Inc., priority 2022, published 2025).
≈ marks a conversion by molar mass, not a printed value. Like-named read-outs stand apart in the source and are kept apart here. Values belong to the molecule of their own block, whether it stands above or below them.

Key:
N. gonorrhoeae [1] = test: Post-antibiotic effect (PAE) against N. gonorrhoeae; format: cell-based, Neisseria gonorrhoeae; settings: 1 h exposure at 10×MIC
Description: Determining the PAE of a new antimicrobial is an important step for dosing and has clinical importance.

[2] = from single dose; cited from earlier work
L. gasseri = test: MIC against commensal vaginal Lactobacillus strains; format: cell-based, Lactobacillus gasseri; settings: for MIC: Lactobacillus gasseri; for MIC Range: Table 6, L. gasseri (4 strains)
Description: (§1) N. gonorrhoeae pathogenesis greatly depends on colonization of the reproductive tract. One of the natural barriers of such colonization is an intact healthy microbiome. Species of lactobacilli present in the genitourinary tract play a significant role in hindering colonization by Neisseria(1).
(§2) A healthy vaginal microbiome that is dominated by Lactobacillus spp. is less susceptible to N. gonorrhoeae infection and other sexually transmitted diseases (STDs). […] We tested the activity of azoles against important members of healthy vaginal microbiota that inhibit N. gonorrhoeae colonization.

N. gonorrhoeae isolates = test: MIC against panel of N. gonorrhoeae clinical isolates; format: cell-based, Neisseria gonorrhoeae; settings: for MIC50 / MIC90 / MIC: Neisseria gonorrhoeae; for MIC50: read-out: MIC50; for MIC90: read-out: MIC90; for MIC: 103 N. gonorrhoeae isolates, read-out: highest MIC value
[3] = system: commensal vaginal lactobacilli strains; test: MIC against all commensal vaginal Lactobacillus strains tested; format: cell-based, Lactobacillus spp.; settings: read-out: MIC
Description: as §1, §2

Lactobacillus casei = test: MIC against normal gut microbiota; format: cell-based; settings: Lactobacillus casei (1 strain)
Description: (§3) Disrupting the intestinal microbiota using broad-spectrum antimicrobial therapy increases the susceptibility of hosts to C. difficile colonization.

Enterococcus faecium = test: MIC against normal gut microbiota; format: cell-based; settings: Enterococcus faecium (1 strain)
Description: as §3

[4] = MIC against normal gut microbiota; format: cell-based
Description: as §3

Lactobacillus brevis = test: MIC against normal gut microbiota; format: cell-based; settings: Lactobacillus brevis (1 strain)
Description: as §3

Bacteroides fragilis = test: MIC against normal gut microbiota; format: cell-based; settings: Bacteroides fragilis (4 strains)
Description: as §3

Staphylococcus aureus = test: MIC against normal gut microbiota; format: cell-based; settings: Staphylococcus aureus (1 strain)
Description: as §3

Bacteroides dorei = test: MIC against normal gut microbiota; format: cell-based; settings: Bacteroides dorei (2 strains)
Description: as §3

[5] = system: Bifidobacterium angulatum; test: MIC against normal gut microbiota; format: cell-based; settings: Bifidobacterium angulatum (1 strain)
Description: as §3

Lactobacillus rhamnosus = test: MIC against normal gut microbiota; format: cell-based; settings: Lactobacillus rhamnosus (1 strain)
Description: as §3

Escherichia coli = test: MIC against normal gut microbiota; format: cell-based; settings: Escherichia coli (1 strain)
Description: as §3

Enterococcus faecalis = test: MIC against normal gut microbiota; format: cell-based; settings: Enterococcus faecalis (1 strain)
Description: as §3

N. flavescens = test: MIC against Neisseria spp.; format: cell-based; settings: N. flavescens (1 strain)
Description: (§4) Intrigued by the specificity and potent activity of azoles against N. gonorrhoeae, we evaluated the extent of the azoles' antibacterial activity against other Neisseria species (Table 8).

N. lactamica = test: MIC against Neisseria spp.; format: cell-based; settings: N. lactamica (1 strain)
Description: as §4

N. mucosa = test: MIC against Neisseria spp.; format: cell-based; settings: N. mucosa (1 strain)
Description: as §4

L. crispatus = test: MIC against commensal vaginal Lactobacillus strains; format: cell-based, Lactobacillus crispatus; settings: for MIC: Lactobacillus crispatus; for MIC Range: Table 6, L. crispatus (3 strains)
Description: as §1, §2

N. meingitidis = test: MIC against Neisseria spp.; format: cell-based, Neisseria meningitidis; settings: N. meingitidis (5 strains)
N. gonorrhoeae [6] = test: Drug library screen against N. gonorrhoeae; format: cell-based, Neisseria gonorrhoeae; settings: Johns Hopkins Clinical Compounds Library, MCE FDA-Approved Drug Library, Pharmakon library; killing in clinical range
Description: To identify drugs capable of killing Neisseria gonorrhoeae, the Johns Hopkins Clinical Compounds Library (1514), the MCE FDA-Approved Drug Library (2441), and the Pharmakon library (1600) were screened against N. gonorrhoeae. Positive hits that are capable of killing Neisseria gonorrhoeae in clinical range were identified (itraconazole, ravuconazole and isavuconazole).

[7] = system: resistant N. gonorrhoeae isolates; test: MIC against resistant N. gonorrhoeae isolates by agar dilution; format: cell-based, Neisseria gonorrhoeae
L. jensenii = test: MIC against commensal vaginal Lactobacillus strains; format: cell-based, Lactobacillus jensenii; settings: for MIC: Lactobacillus jensenii; for MIC Range: Table 6, L. jensenii (7 strains)
Description: as §1, §2

L. johnsonii = test: as above; format: cell-based, Lactobacillus johnsonii; settings: for MIC: Lactobacillus johnsonii, L. johnsonii HM-643; for MIC Range: Table 6, L. johsonii (2 strains)
Description: as §1, §2

[8] = system: intracellular N. gonorrhoeae FA1090 in endocervical cells (End1/E6E7); settings: literature statement [1, 3, 5]; cited from earlier work
[9] = Table 1, 104 N. gonorrhoeae isolates
[10] = Table 3, 103 N. gonorrhoeae isolates with different resistance profiles
[11] = panel of 84 N. gonorrhoeae clinical isolates
[12] = Bacteroides adolescentis (2 strains)

Structure (SMILES): C[C@@H](c1nc(-c2ccc(C#N)cc2)cs1)[C@](O)(Cn1cncn1)c1ccc(F)cc1F [Ravuconazole]
PAE (N. gonorrhoeae [1]; strain FA 1090): 12 h
PAE (N. gonorrhoeae [1]; strain WHO P): >16 h
PAE (N. gonorrhoeae [1]; strain WHO Y): 16 h
half-life [2]: up to 8 days
MIC (L. gasseri; L. gasseri HM-407): > 256 µg/mL
MIC (L. gasseri; L. gasseri HM-642): > 256 µg/mL
MIC (L. gasseri; L. gasseri HM-644): > 256 µg/mL
MIC (L. gasseri; L. gasseri HM-647): > 256 µg/mL
MIC Range (L. gasseri): ≥256 µg/mL
MIC50 (N. gonorrhoeae isolates; [9]): 0.03 µg/mL (≈ 0.0686 µM)
MIC90 (N. gonorrhoeae isolates; [9]): 0.06 µg/mL (≈ 0.137 µM)
MIC50 (N. gonorrhoeae isolates; [10]): 0.03 µg/mL (≈ 0.0686 µM)
MIC90 (N. gonorrhoeae isolates; [10]): 0.06 µg/mL (≈ 0.137 µM)
MIC50 (N. gonorrhoeae isolates; [11]): 0.03 µg/mL (≈ 0.0686 µM)
MIC90 (N. gonorrhoeae isolates; [11]): 0.06 µg/mL (≈ 0.137 µM)
MIC (N. gonorrhoeae isolates): 0.25 µg/mL (≈ 0.571 µM)
MIC Range (N. gonorrhoeae isolates; [10]): 0.002 to 0.25 µg/mL
fold more potent antimicrobial activity than isavuconazole (N. gonorrhoeae isolates; from Table 3 and Table 8): ≥ 125 fold
MIC ([3]; Lactobacillus, all strains of lactobacilli (Example 1 text)): > 256 µg/mL
MIC Range (Lactobacillus casei): >256 µg/mL
MIC Range (Enterococcus faecium): >256 µg/mL
MIC Range [4, 12]: >256 µg/mL
MIC Range ([4]; Bacteroides breve (2 strains)): >256 µg/mL
MIC Range ([4]; Bacteroides longum (2 strains)): >256 µg/mL
MIC Range (Lactobacillus brevis): >256 µg/mL
MIC Range (Bacteroides fragilis): >256 µg/mL
MIC Range (Staphylococcus aureus): >256 µg/mL
MIC Range (Bacteroides dorei): >256 µg/mL
MIC Range [5]: >256 µg/mL
MIC Range (Lactobacillus rhamnosus): >256 µg/mL
MIC Range (Escherichia coli): >256 µg/mL
MIC Range (Enterococcus faecalis): >256 µg/mL
MIC Range (N. flavescens): 0.125 µg/mL (≈ 0.286 µM)
MIC Range (N. lactamica): 0.03 µg/mL (≈ 0.0686 µM)
MIC Range (N. mucosa): 0.125 µg/mL (≈ 0.286 µM)
MIC (L. crispatus; L. crispatus HM-103): > 256 µg/mL
MIC (L. crispatus; L. crispatus HM-371): > 256 µg/mL
MIC (L. crispatus; L. crispatus HM-638): > 256 µg/mL
MIC Range (L. crispatus): ≥256 µg/mL
MIC Range (N. meingitidis): 0.004 to 0.008 µg/mL
screening outcome (N. gonorrhoeae [6]): Positive hits
MIC ([7]; strain CDC-174, agar dilution): 0.25 µg/mL (≈ 0.571 µM)
MIC ([7]; strain CDC-179, agar dilution): 0.06 µg/mL (≈ 0.137 µM)
MIC ([7]; strain CDC-181, agar dilution): 0.25 µg/mL (≈ 0.571 µM)
MIC ([7]; strain WHO-L, agar dilution): 0.25 µg/mL (≈ 0.571 µM)
MIC ([7]; strain WHO-X, agar dilution): 0.25 µg/mL (≈ 0.571 µM)
MIC ([7]; strain WHO-Y, agar dilution): 0.25 µg/mL (≈ 0.571 µM)
MIC ([7]; strain WHO-Z, agar dilution): 0.25 µg/mL (≈ 0.571 µM)
MIC (L. jensenii; L. jensenii HM-105): > 256 µg/mL
MIC (L. jensenii; L. jensenii HM-372): > 256 µg/mL
MIC (L. jensenii; L. jensenii HM-374): > 256 µg/mL
MIC (L. jensenii; L. jensenii HM-639): > 256 µg/mL
MIC (L. jensenii; L. jensenii HM-640): > 256 µg/mL
MIC (L. jensenii; L. jensenii HM-645): > 256 µg/mL
MIC (L. jensenii; L. jensenii HM-646): > 256 µg/mL
MIC Range (L. jensenii): ≥256 µg/mL
MIC (L. johnsonii): > 256 µg/mL
MIC Range (L. johnsonii): ≥256 µg/mL

MIC (L. gasseri; L. gasseri HM-407): ≤ 0.5 µg/mL
MIC (L. gasseri; L. gasseri HM-642): 2 µg/mL (≈ 3.61 µM)
MIC (L. gasseri; L. gasseri HM-644): 1 µg/mL (≈ 1.8 µM)
MIC (L. gasseri; L. gasseri HM-647): 1 µg/mL (≈ 1.8 µM)
MIC Range (L. gasseri): ≤1 µg/mL
MIC50 (N. gonorrhoeae isolates; [9]): 0.03 µg/mL (≈ 0.0541 µM)
MIC90 (N. gonorrhoeae isolates; [9]): 0.06 µg/mL (≈ 0.108 µM)
MIC50 (N. gonorrhoeae isolates; [10]): 0.03 µg/mL (≈ 0.0541 µM)
MIC90 (N. gonorrhoeae isolates; [10]): 0.06 µg/mL (≈ 0.108 µM)
MIC (N. gonorrhoeae isolates): 2 µg/mL (≈ 3.61 µM)
MIC Range (N. gonorrhoeae isolates; [9]): 0.001 to 2 µg/mL
MIC Range (N. gonorrhoeae isolates; [10]): 0.001 to 2 µg/mL
MIC ([3]; all species/strains of Lactobacillus tested (Example 2)): < 1 µg/mL
MIC Range (N. flavescens): 0.125 µg/mL (≈ 0.225 µM)
MIC Range (N. lactamica): 0.125 µg/mL (≈ 0.225 µM)
MIC Range (N. mucosa): 0.125 µg/mL (≈ 0.225 µM)
MIC (L. crispatus; L. crispatus HM-103): 2 µg/mL (≈ 3.61 µM)
MIC (L. crispatus; L. crispatus HM-371): 1 µg/mL (≈ 1.8 µM)
MIC (L. crispatus; L. crispatus HM-638): 4 µg/mL (≈ 7.21 µM)
MIC Range (L. crispatus): ≤1 to 2 µg/mL
MIC Range (N. meingitidis): 0.004 to 0.008 µg/mL
MIC ([7]; strain CDC-174, agar dilution): 0.25 µg/mL (≈ 0.451 µM)
MIC ([7]; strain CDC-179, agar dilution): 0.015 µg/mL (≈ 0.027 µM)
MIC ([7]; strain CDC-181, agar dilution): 0.06 µg/mL (≈ 0.108 µM)
MIC ([7]; strain WHO-L, agar dilution): 0.5 µg/mL (≈ 0.902 µM)
MIC ([7]; strain WHO-X, agar dilution): 2 µg/mL (≈ 3.61 µM)
MIC ([7]; strain WHO-Y, agar dilution): 1 µg/mL (≈ 1.8 µM)
MIC ([7]; strain WHO-Z, agar dilution): 0.5 µg/mL (≈ 0.902 µM)
MIC (L. jensenii; L. jensenii HM-105): ≤ 0.5 µg/mL
MIC (L. jensenii; L. jensenii HM-372): ≤ 0.5 µg/mL
MIC (L. jensenii; L. jensenii HM-374): 1 µg/mL (≈ 1.8 µM)
MIC (L. jensenii; L. jensenii HM-639): ≤ 0.5 µg/mL
MIC (L. jensenii; L. jensenii HM-640): ≤ 0.5 µg/mL
MIC (L. jensenii; L. jensenii HM-645): ≤ 0.5 µg/mL
MIC (L. jensenii; L. jensenii HM-646): ≤ 0.5 µg/mL
MIC Range (L. jensenii): ≤1 to 2 µg/mL
MIC (L. johnsonii): 2 µg/mL (≈ 3.61 µM)
MIC Range (L. johnsonii): ≤1 µg/mL
Structure (SMILES): CO/N=C(\C(=O)N[C@@H]1C(=O)N2C(C(=O)O)=C(CSc3nc(=O)c(=O)[nH]n3C)CS[C@H]12)c1csc(N)n1 [Ceftriaxone]
PAE (N. gonorrhoeae [1]; strain FA 1090): 4 h
PAE (N. gonorrhoeae [1]; strain WHO P): 8 h
PAE (N. gonorrhoeae [1]; strain WHO Y): 6 h
ability to clear intracellular N. gonorrhoeae [8]: unable to clear intracellular N. gonorrhoeae
MIC Range (Lactobacillus casei): 16 µg/mL (≈ 28.9 µM)
MIC Range (Enterococcus faecium): 8 µg/mL (≈ 14.4 µM)
MIC Range [4, 12]: 0.125 µg/mL (≈ 0.225 µM)
MIC Range ([4]; Bacteroides breve (2 strains)): 1 to 4 µg/mL
MIC Range ([4]; Bacteroides longum (2 strains)): 4 µg/mL (≈ 7.21 µM)
MIC Range (Lactobacillus brevis): 0.5 µg/mL (≈ 0.902 µM)
MIC Range (Staphylococcus aureus): 2 µg/mL (≈ 3.61 µM)
MIC Range (Bacteroides dorei): 4 to 16 µg/mL
MIC Range [5]: 0.125 µg/mL (≈ 0.225 µM)
MIC Range (Lactobacillus rhamnosus): 16 µg/mL (≈ 28.9 µM)
MIC Range (Escherichia coli): 0.03 µg/mL (≈ 0.0541 µM)
MIC Range (Enterococcus faecalis): 8 µg/mL (≈ 14.4 µM)
